Source: ChEMBL document CHEMBL5724914, “Linking interpersonal differences in gut microbiota composition and drug biotransformation activity” (2024)

How the values were obtained:
[1] = The drug is tested on WLS-007 corresponding to human gut metagenome with ENA study accession number: PRJEB37062 and ENA sample accession number: ERS12561742 for biotransformation under anaerobic condition. The drug concentrations were measured over 9 timepoints collected between 0 and 24 hours of incubation by liquid-chromatography-coupled mass spectrometry (LC–MS); conditions: 2 µM
[2] = human gut metagenome, 24 h, 2 µM
[3] = human gut metagenome, 24 h, 2 µM; remark: listed apart in the source
[4] = human gut metagenome, 24 h, 2 µM; remark: listed apart in the source
[5] = human gut metagenome, 24 h, 2 µM; remark: listed apart in the source
[6] = The drug is tested on Z-010 corresponding to metagenome with ENA study accession number: PRJEB37062 and ENA sample accession number: ERS12561810 for biotransformation under anaerobic condition. The drug concentrations were measured over 9 timepoints collected between 0 and 24 hours of incubation by liquid-chromatography-coupled mass spectrometry (LC–MS); conditions: 2 µM
[7] = human gut metagenome, 24 h, 2 µM; remark: listed apart in the source
[8] = The drug is tested on Z-022 corresponding to mouse gut metagenome with ENA study accession number: PRJEB37062 and ENA sample accession number: ERS12561821 for biotransformation under anaerobic condition. The drug concentrations were measured over 9 timepoints collected between 0 and 24 hours of incubation by liquid-chromatography-coupled mass spectrometry (LC–MS); conditions: 2 µM
[9] = The drug is tested on Z-027 corresponding to metagenome with ENA study accession number: PRJEB37062 and ENA sample accession number: ERS12561826 for biotransformation under anaerobic condition. The drug concentrations were measured over 9 timepoints collected between 0 and 24 hours of incubation by liquid-chromatography-coupled mass spectrometry (LC–MS); conditions: 2 µM
[10] = human gut metagenome, 24 h, 2 µM; remark: listed apart in the source
[11] = human gut metagenome, 24 h, 2 µM; remark: listed apart in the source
[12] = The drug is tested on Z-021 corresponding to metagenome with ENA study accession number: PRJEB37062 and ENA sample accession number: ERS12561820 for biotransformation under anaerobic condition. The drug concentrations were measured over 9 timepoints collected between 0 and 24 hours of incubation by liquid-chromatography-coupled mass spectrometry (LC–MS); conditions: 2 µM
[13] = The drug is tested on Z-007 corresponding to rat gut metagenome with ENA study accession number: PRJEB37062 and ENA sample accession number: ERS12561807 for biotransformation under anaerobic condition. The drug concentrations were measured over 9 timepoints collected between 0 and 24 hours of incubation by liquid-chromatography-coupled mass spectrometry (LC–MS); conditions: 2 µM
[14] = The drug is tested on WLS-350 corresponding to human gut metagenome with ENA study accession number: PRJEB37062 and ENA sample accession number: ERS12561789 for biotransformation under anaerobic condition. The drug concentrations were measured over 9 timepoints collected between 0 and 24 hours of incubation by liquid-chromatography-coupled mass spectrometry (LC–MS); conditions: 2 µM
[15] = human gut metagenome, 24 h, 2 µM; remark: listed apart in the source
[16] = human gut metagenome, 24 h, 2 µM; remark: listed apart in the source
[17] = human gut metagenome, 24 h, 2 µM; remark: listed apart in the source
[18] = human gut metagenome, 24 h, 2 µM; remark: listed apart in the source
[19] = The drug is tested on Z-023 corresponding to metagenome with ENA study accession number: PRJEB37062 and ENA sample accession number: ERS12561822 for biotransformation under anaerobic condition. The drug concentrations were measured over 9 timepoints collected between 0 and 24 hours of incubation by liquid-chromatography-coupled mass spectrometry (LC–MS); conditions: 2 µM
[20] = human gut metagenome, 24 h, 2 µM; remark: listed apart in the source
Further: call rule not given here.

C[C@@H](CO)NC(=O)[C@@H]1C=C2c3cccc4[nH]cc(c34)C[C@H]2N(C)C1.O=C(O)/C=C\C(=O)O [ERGONOVINE MALEATE]
Bacterial Biotransformation [1]: Compound NOT metabolized
Bacterial Biotransformation [2]: Compound metabolized
Bacterial Biotransformation [3]: Compound metabolized
Bacterial Biotransformation [4]: Compound metabolized
Bacterial Biotransformation [5]: Compound NOT metabolized
Bacterial Biotransformation [6]: Compound NOT metabolized
Bacterial Biotransformation [7]: Compound metabolized
Bacterial Biotransformation [8]: Compound NOT metabolized
Bacterial Biotransformation [9]: Compound NOT metabolized
Bacterial Biotransformation [10]: Compound NOT metabolized
Bacterial Biotransformation [11]: Compound metabolized
Bacterial Biotransformation [12]: Compound NOT metabolized
Bacterial Biotransformation [13]: Compound NOT metabolized
Bacterial Biotransformation [14]: Compound metabolized
Bacterial Biotransformation [15]: Compound metabolized
Bacterial Biotransformation [16]: Compound NOT metabolized
Bacterial Biotransformation [17]: Compound metabolized
Bacterial Biotransformation [18]: Compound metabolized
Bacterial Biotransformation [19]: Compound NOT metabolized
Bacterial Biotransformation [20]: Compound metabolized

CCN(CC)C(C)CN1c2ccccc2Sc2ccccc21 (stereo not given) [ETHOPROPAZINE]
Bacterial Biotransformation [1]: Compound metabolized
Bacterial Biotransformation [2]: Compound metabolized
Bacterial Biotransformation [3]: Compound metabolized
Bacterial Biotransformation [4]: Compound metabolized
Bacterial Biotransformation [5]: Compound metabolized
Bacterial Biotransformation [6]: Compound metabolized
Bacterial Biotransformation [7]: Compound metabolized
Bacterial Biotransformation [8]: Compound NOT metabolized
Bacterial Biotransformation [9]: Compound NOT metabolized
Bacterial Biotransformation [10]: Compound metabolized
Bacterial Biotransformation [11]: Compound metabolized
Bacterial Biotransformation [12]: Compound metabolized
Bacterial Biotransformation [13]: Compound NOT metabolized
Bacterial Biotransformation [14]: Compound metabolized
Bacterial Biotransformation [15]: Compound metabolized
Bacterial Biotransformation [16]: Compound metabolized
Bacterial Biotransformation [17]: Compound metabolized
Bacterial Biotransformation [18]: Compound metabolized
Bacterial Biotransformation [19]: Compound metabolized
Bacterial Biotransformation [20]: Compound metabolized

Cc1nc(-c2ccc(OCC(C)C)c(C#N)c2)sc1C(=O)O [FEBUXOSTAT]
Bacterial Biotransformation [1]: Compound NOT metabolized
Bacterial Biotransformation [2]: Compound metabolized
Bacterial Biotransformation [3]: Compound metabolized
Bacterial Biotransformation [4]: Compound metabolized
Bacterial Biotransformation [5]: Compound metabolized
Bacterial Biotransformation [6]: Compound metabolized
Bacterial Biotransformation [7]: Compound NOT metabolized
Bacterial Biotransformation [8]: Compound metabolized
Bacterial Biotransformation [9]: Compound metabolized
Bacterial Biotransformation [10]: Compound metabolized
Bacterial Biotransformation [11]: Compound metabolized
Bacterial Biotransformation [12]: Compound metabolized
Bacterial Biotransformation [13]: Compound NOT metabolized
Bacterial Biotransformation [14]: Compound metabolized
Bacterial Biotransformation [15]: Compound metabolized
Bacterial Biotransformation [16]: Compound metabolized
Bacterial Biotransformation [17]: Compound metabolized
Bacterial Biotransformation [18]: Compound metabolized
Bacterial Biotransformation [19]: Compound metabolized
Bacterial Biotransformation [20]: Compound metabolized

CC(C)(C(=O)O)c1ccc(C(O)CCCN2CCC(C(O)(c3ccccc3)c3ccccc3)CC2)cc1 (stereo not given) [FEXOFENADINE]
Bacterial Biotransformation [1]: Compound NOT metabolized
Bacterial Biotransformation [2]: Compound NOT metabolized
Bacterial Biotransformation [3]: Compound NOT metabolized
Bacterial Biotransformation [4]: Compound NOT metabolized
Bacterial Biotransformation [5]: Compound NOT metabolized
Bacterial Biotransformation [6]: Compound NOT metabolized
Bacterial Biotransformation [7]: Compound NOT metabolized
Bacterial Biotransformation [8]: Compound NOT metabolized
Bacterial Biotransformation [9]: Compound NOT metabolized
Bacterial Biotransformation [10]: Compound NOT metabolized
Bacterial Biotransformation [11]: Compound NOT metabolized
Bacterial Biotransformation [12]: Compound NOT metabolized
Bacterial Biotransformation [13]: Compound NOT metabolized
Bacterial Biotransformation [14]: Compound NOT metabolized
Bacterial Biotransformation [15]: Compound NOT metabolized
Bacterial Biotransformation [16]: Compound NOT metabolized
Bacterial Biotransformation [17]: Compound NOT metabolized
Bacterial Biotransformation [18]: Compound NOT metabolized
Bacterial Biotransformation [19]: Compound metabolized
Bacterial Biotransformation [20]: Compound NOT metabolized

OCCN1CCN(CCCN2c3ccccc3Sc3ccc(C(F)(F)F)cc32)CC1 [FLUPHENAZINE]
Bacterial Biotransformation [1]: Compound NOT metabolized
Bacterial Biotransformation [2]: Compound metabolized
Bacterial Biotransformation [3]: Compound metabolized
Bacterial Biotransformation [4]: Compound metabolized
Bacterial Biotransformation [5]: Compound metabolized
Bacterial Biotransformation [6]: Compound metabolized
Bacterial Biotransformation [7]: Compound metabolized
Bacterial Biotransformation [8]: Compound metabolized
Bacterial Biotransformation [9]: Compound NOT metabolized
Bacterial Biotransformation [10]: Compound metabolized
Bacterial Biotransformation [11]: Compound metabolized
Bacterial Biotransformation [12]: Compound metabolized
Bacterial Biotransformation [13]: Compound NOT metabolized
Bacterial Biotransformation [14]: Compound metabolized
Bacterial Biotransformation [15]: Compound metabolized
Bacterial Biotransformation [16]: Compound metabolized
Bacterial Biotransformation [17]: Compound metabolized
Bacterial Biotransformation [18]: Compound metabolized
Bacterial Biotransformation [19]: Compound metabolized
Bacterial Biotransformation [20]: Compound metabolized

COc1ccc2c3c1O[C@H]1C[C@@H](O)C=C[C@@]31CCN(C)C2 [GALANTAMINE]
Bacterial Biotransformation [1]: Compound NOT metabolized
Bacterial Biotransformation [2]: Compound NOT metabolized
Bacterial Biotransformation [3]: Compound metabolized
Bacterial Biotransformation [4]: Compound NOT metabolized
Bacterial Biotransformation [5]: Compound NOT metabolized
Bacterial Biotransformation [6]: Compound metabolized
Bacterial Biotransformation [7]: Compound NOT metabolized
Bacterial Biotransformation [8]: Compound NOT metabolized
Bacterial Biotransformation [9]: Compound NOT metabolized
Bacterial Biotransformation [10]: Compound NOT metabolized
Bacterial Biotransformation [11]: Compound metabolized
Bacterial Biotransformation [12]: Compound NOT metabolized
Bacterial Biotransformation [13]: Compound NOT metabolized
Bacterial Biotransformation [14]: Compound metabolized
Bacterial Biotransformation [15]: Compound NOT metabolized
Bacterial Biotransformation [16]: Compound NOT metabolized
Bacterial Biotransformation [17]: Compound NOT metabolized
Bacterial Biotransformation [18]: Compound NOT metabolized
Bacterial Biotransformation [19]: Compound NOT metabolized
Bacterial Biotransformation [20]: Compound NOT metabolized
